The record followed here is patent publication US6084120A, “β-Alkoxyacrylates against malaria” (Hoffmann-La Roche Inc., priority 1997, dated 2000).

Values after ≈ are worked out from the molar mass of the structure shown. Like-named read-outs stand apart in the source and are kept apart here.

Data set [1] relates to human-pathogenic Plasmodium falciparum K1. As to the kind of experiment: Growth inhibition of Plasmodium falciparum in vitro, strain K1 (chloroquine-resistant), [G-3H]-hypoxanthin incorporation. The format is cell-based. Conditions: 72 h. As for the experimental part: (§1) Test method for the determination of the activity against Plasmodium falciparum in vitro
(§2) The preparations are tested on intraerythrocytary stages of Plasmodium falciparum from asynchronous cultures according to the method of Desjardin et al. (Desjardins, R. E. et al: Quantitative assessment of antimalarial activity in vitro by a semiautomated microdilution technique. Antimicrob. Agents Chemother. 16, 710-718, (1979)).
(§3) The culture medium consists of RPMI 1640 with the addition of 25 mM HEPES, 25 mM NaHCO3, 100 μg/ml neomycin and 10% human serum (A^+). Human-A^+ erythrocytes are used as the Plasmodium falciparum host cells. The parasites are maintained at 37° C. in an atmosphere of 3% O2, 4% CO2, 93% N2 and 95% relative humidity.
(§4) In order to determine the activity, the preparations are dissolved in DMSO, pre-diluted in the culture medium to a suitable starting concentration and subsequently titrated-out on to microtitre plates in the 2nd stage over 6-7 steps. After the addition of the parasite culture (0.7% parasitemia in 2.5% erythrocyte suspension) the test plates are incubated under the conditions given above for 72 h. The parasite growth in the different preparation concentrations is determined using [G-^3 H]-hypoxanthin incorporation compared to untreated control cultures on the same test plates. The 50% growth inhibition (IC50) is calculated according to logit regression analysis from the resulting dosage-activity curve.
(§5) The preparations are tested on at least one chloroquine-resistant and one chloroquine-sensitive Plasmodium falciparum strain. Additional sensitive and resistant strains are included for further characterization.

For data set [2], the system named is human-pathogenic Plasmodium falciparum strain NF54. As to the kind of experiment: Growth inhibition of Plasmodium falciparum in vitro, strain NF54 (chloroquine-sensitive), [G-3H]-hypoxanthin incorporation. The format is cell-based. Conditions: 72 h, read-out: in vitro strain NF 54 IC50 (growth inhibition) (converted). As for the experimental part:
as §1, §2, §3, §4, §5

In data set [3] the test system is Plasmodium berghei (strain ANKA). Description: Activity against Plasmodium berghei in vivo, reduction of parasitemia in infected mice. Conditions: for inhibition in vivo at 10 mg/kg / inhibition in vivo at 100 mg/kg: Plasmodium berghei, 48 h after treatment; for inhibition in vivo at 10 mg/kg: single dose 10 mg/kg; for inhibition in vivo at 100 mg/kg / in vivo sc act. % (toxic): single dose 100 mg/kg. The method, then: Test method for the determination of the activity against Plasmodium berghei in vivo
The preparations are tested on mice infected with malaria pathogens (Plasmodium berghei). Male albino mice (IBM:MORO(SPF), FUELLINSDORF) weighing about 25 g are used as the test animals. They are kept in climatized rooms at 21-22° C. in groups of 5 animals per cage. They receive ad libitum a diet feed with a low PABA content (NAFAG FUTTER" No. 9009 PAB-45, PABA content 45 mg/kg) and drinking water. On the first day of the test (D0) the test animals are infected with Plasmodium berghei (strain ANKA). For this there is used heparinized blood of a donor mouse with about 30% parasitemia, which is diluted with physiological saline such that it contains 10^8 parasitized erythrocytes per ml. 0.2 ml of this suspension is injected intravenously (i.v.) into the mice to be treated and into the control mice. In untreated control animals the parasitemia normally reaches 30-40% on the third day after the infection (D+3) and the test animals die between days +5 and +7.
The substances to be tested are dissolved or suspended in distilled water or in a mixture of 7% Tween 80, 3% alcohol (96%) and water. Usually, 0.25 ml of this solution or suspension is administered once subcutaneously and perorally to groups of 5 test animals. Treatment is effected 24 hours after the infection. 10 control animals are treated in the same manner with solvent or suspension medium per test.
All substances are tested in a first test in a single dosage of 100 or 10 mg/kg. Only those substances which in this test (10 mg/kg) have shown a parasitaemia reduction of more than 90% are used for the titration. Suitable dilutions of the test substance can be used to obtain an accurate titration of the activity.
48 hours after the treatment (D+3) blood smears are prepared from all animals using blood from tail veins and are stained with giemsa. The average erythrocyte infection rate (parasitemiea in %) in the control groups as well as in the groups which have been treated with the test compounds is determined by counting under a microscope. The difference in the average values of the infection rates of control group (100%) and treated groups is calculated and expressed as a percentage reduction (GI%). The ED50 or ED90 is determined mathematically by means of the JMP programme (nonlinear fit). The ED50 (ED90) in mg/kg is that dose which after single administration reduces the average erythrocyte infection rate by 50% (90%) in comparison to the control group.

Setting [4] is: po, perorally, read-out: in vivo po act. % (percentage reduction of the parasitemia).
Where [5] appears, read: sc, subcutaneously, read-out: in vivo sc act. % (percentage reduction of the parasitemia).

As usually defined, the IC50 is the concentration needed to halve the response being measured. With `CO/C=C(/C(=O)OC)c1ccccc1/C=C/C=C/c1ccccc1C(F)(F)F` [Example 185, Methyl (E)-3-methoxy-2-[o-[(all-E)-4-(alpha,alpha,alpha-trifluoro-tolyl)-1,3-butadienyl]-phenl]acrylate], the IC50 in data set [1] is 0.15 µg/mL (≈ 0.386 µM); in data set [2], 0.06 µg/mL (≈ 0.154 µM). In addition, the inhibition in vivo at 10 mg/kg in data set [3] (setting [4]) stood at 99%. In addition, in data set [3] (setting [5]), the inhibition in vivo at 100 mg/kg amounted to 100%.

As for `CO/N=C(/C(=O)OC)c1ccccc1CO/N=C(\C)c1cc(C(F)(F)F)cc(C(F)(F)F)c1` [Example 111], the half-inhibitory concentration (IC50) was 4.3 µg/mL (≈ 9.03 µM) in data set [1] and 1.6 µg/mL (≈ 3.36 µM) in data set [2].

On to `CO/C=C(/C(=O)OC)c1ccccc1/C=C/CSc1ccccc1C(F)(F)F` [Example 120], for which the IC50 is 2.51 µg/mL (≈ 6.15 µM) in data set [1] and 1.75 µg/mL (≈ 4.28 µM) in data set [2]. Moreover, the inhibition in vivo at 100 mg/kg in data set [3] (setting [4]) worked out at 46%; in data set [3] (setting [5]), 91%.

In the case of `CO/C=C(/C(=O)OC)c1ccccc1COc1cnc2cc(Br)cc(C)c2n1` [Example 28], the IC50 in data set [1] is 19.1 µg/mL (≈ 43.1 µM); in data set [2], 17.7 µg/mL (≈ 39.9 µM).

As to `CO/C=C(/C(=O)OC)c1csc2c(C)cccc12` [Example 250], the IC50 is 550 µg/mL (≈ 2100 µM) in data set [1] and 184 µg/mL (≈ 703 µM) in data set [2].

For `CO/C=C(/C(=O)OC)c1ccccc1/C=C/C=C/c1ccccc1Br` [Example 203, Methyl (E)-2-[o-[(all-E)-4-(o-bromophenyl)-1,3-butadienyl]phenyl]-3-methoxyacrylate], the IC50 in data set [1] is 0.28 µg/mL (≈ 0.701 µM); in data set [2], 0.07 µg/mL (≈ 0.175 µM). Further, the inhibition in vivo at 10 mg/kg in data set [3] (setting [4]) is 76%. Besides, the inhibition in vivo at 100 mg/kg in data set [3] (setting [5]) is 90%.

Consider `CO/C=C(/C(=O)OC)c1csc2cccc(COC(=O)Cc3ccc(Cl)cc3Cl)c12` [Example 233], for which the IC50 in data set [1] was 67.3 µg/mL (≈ 145 µM); in data set [2] it was 29.5 µg/mL (≈ 63.4 µM).

Turning to `CO/C=C(/C(=O)OC)c1csc2cccc(COC(=O)/C=C/c3cccc(C(F)(F)F)c3)c12` [Example 236], the concentration for half-maximal inhibition (IC50) was 175 µg/mL (≈ 367 µM) in data set [1] and 44.2 µg/mL (≈ 92.8 µM) in data set [2].

In the case of `CO/N=C(/C(=O)OC)c1ccccc1CO/N=C(\C)c1cccc(C(F)(F)F)c1` [Example 110], the IC50 in data set [1] was 65.8 µg/mL (≈ 161 µM); in data set [2], 20 µg/mL (≈ 49 µM).

Regarding `CO/C=C(/C(=O)OC)c1ccccc1CO/N=C(\C)c1cc(C(F)(F)F)cc(C(F)(F)F)c1` [Example 105], the half-inhibitory concentration (IC50) is 1.01 µg/mL (≈ 2.12 µM) in data set [1] and 0.21 µg/mL (≈ 0.442 µM) in data set [2].

Consider `CO/C=C(/C(=O)OC)c1ccccc1/C=C/c1ccc(OC)c(OC)c1Cl` [Example 136], for which the figures for the half-maximal inhibitory concentration (IC50) in data set [1] and in data set [2] were 2.9 µg/mL (≈ 7.46 µM) and 1.04 µg/mL (≈ 2.67 µM), respectively. For the same compound, the inhibition in vivo at 100 mg/kg in data set [3] (setting [4]) worked out at 40%. In data set [3] (subcutaneously), the “in vivo sc act. % (toxic)” value is “tox”.

Regarding `CO/C=C(/C(=O)OC)c1ccccc1CCCCc1ccccc1C(F)(F)F` [Example 210], the results for the 50% inhibitory concentration (IC50) in data set [1] and in data set [2] were 1.35 µg/mL (≈ 3.44 µM) and 0.85 µg/mL (≈ 2.17 µM), respectively. The results for the inhibition in vivo at 100 mg/kg in data set [3] (setting [4]) and in data set [3] (setting [5]) were 82% and 99%, respectively.

In the case of `CO/C=C(/C(=O)OC)c1ccccc1/C=C/COC1CCCCO1` [Example 251, (E)-3-Methoxy-2-{(E)-2-[(R)- and (S)-3-(tetrahydro-pyran-2-yloxy}-propenyl]-phenyl}-acrylic acid methyl ester], the 50% inhibitory concentration (IC50) is 111 µg/mL (≈ 334 µM) in data set [1] and 64.9 µg/mL (≈ 195 µM) in data set [2]. For the same compound, the inhibition in vivo at 100 mg/kg in data set [3] (setting [4]) was 40%; in data set [3] (setting [5]), 74%.

On to `COC=C(C(=O)OC)c1ccccc1C=CC=Cc1ccc(C(F)(F)F)cc1C(F)(F)F` [Example 199, (E)- or (Z)-2-[2-[4-(2,4-bis-trifluoromethyl-phenyl)-buta-1,3-dienyl]phenyl]-3-methoxy-acrylic acid methyl ester], for which the concentration for half-maximal inhibition (IC50) in data set [1] is 0.13 µg/mL (≈ 0.285 µM); in data set [2] it was 0.06 µg/mL (≈ 0.131 µM). The inhibition in vivo at 10 mg/kg in data set [3] (setting [4]) was determined as 100%. Further, in data set [3] (setting [5]), the inhibition in vivo at 100 mg/kg worked out at 100%.

As to `CO/C=C(/C(=O)OC)c1csc2cccc(CN(C)[C@@H](C)c3ccccc3)c12` [Example 222], the IC50 in data set [1] was 64.3 µg/mL (≈ 163 µM); in data set [2], 22.6 µg/mL (≈ 57.1 µM).

In the case of `CO/N=C(/C(=O)OC)c1ccccc1C#CC#Cc1ccccc1C(F)(F)F` [Example 207], the IC50 in data set [1] is 25.8 µg/mL (≈ 67 µM); in data set [2] it was 10.8 µg/mL (≈ 28 µM).

Take `CO/C=C(/C(=O)OC)c1csc2cccc(/C=C/c3ccccc3)c12` [Example 241]: the figures for the IC50 in data set [1] and in data set [2] were 7.4 µg/mL (≈ 21.1 µM) and 1.4 µg/mL (≈ 3.99 µM), respectively.

Regarding `CO/N=C(/C(=O)OC)c1ccccc1C#C/C=C/c1ccccc1C(F)(F)F` [Example 209], the IC50 in data set [1] was 5.7 µg/mL (≈ 14.7 µM); in data set [2] it was 3.21 µg/mL (≈ 8.29 µM).

Consider `CON=C(C(=O)OC)c1ccccc1/C=C/C=C/c1ccccc1C(F)(F)F` [Example 206, (Z)- or (E)-Methoxyimino-[2-[(1E,2E)-4-(2-trifluoromethylphenyl)-buta-1,3-dienyl]-phenyl]-acetic acid methyl ester], for which the values for the concentration for half-maximal inhibition (IC50) in data set [1] and in data set [2] were 1.4 µg/mL (≈ 3.6 µM) and 0.4 µg/mL (≈ 1.03 µM), respectively. Further, the inhibition in vivo at 100 mg/kg in data set [3] (setting [4]) came to 46%; in data set [3] (setting [5]), 44%.

Regarding `CO/C=C(/C(=O)OC)c1ccccc1CCCCc1ccc(C(F)(F)F)cc1C(F)(F)F` [Example 211], the IC50 was 1.34 µg/mL (≈ 2.91 µM) in data set [1] and 0.33 µg/mL (≈ 0.717 µM) in data set [2]. Also, the inhibition in vivo at 10 mg/kg in data set [3] (setting [4]) came out at 59%. For the same compound, in data set [3] (setting [5]), the inhibition in vivo at 100 mg/kg turned out to be 92%.

On to `CO/C=C(/C(=O)OC)c1ccccc1CSc1c(F)c(F)c(F)c(F)c1F` [Example 11], for which the IC50 in data set [1] was 4.9 µg/mL (≈ 12.1 µM); in data set [2], 1.17 µg/mL (≈ 2.89 µM). The inhibition in vivo at 100 mg/kg in data set [3] (setting [4]) turned out to be 80%. Moreover, the “in vivo sc act. % (toxic)” value in data set [3] (subcutaneously) is given as “tox”.

For `CO/N=C(/C(=O)OC)c1ccccc1-c1ccc(-c2ccccc2C(F)(F)F)s1` [Example 217], the results for the concentration for half-maximal inhibition (IC50) in data set [1] and in data set [2] were 60.8 µg/mL (≈ 145 µM) and 23.7 µg/mL (≈ 56.5 µM), respectively.

For `CO/C=C(/C(=O)OC)c1csc2cccc(/C=C/c3ccsc3)c12` [Example 243], the IC50 in data set [1] is 22.6 µg/mL (≈ 63.4 µM); in data set [2], 6.7 µg/mL (≈ 18.8 µM).

For `CO/C=C(/C(=O)OC)c1csc2cccc(CO/N=C(\C)c3cccc(C(F)(F)F)c3)c12` [Example 238], the values for the IC50 in data set [1] and in data set [2] were 40.9 µg/mL (≈ 88.2 µM) and 17.5 µg/mL (≈ 37.8 µM), respectively.

Turning to `CO/C=C(/C(=O)OC)c1ccccc1/C=C/c1cc(OC)c(OC)cc1[N+](=O)[O-]` [Example 126], the IC50 in data set [1] is 3.3 µg/mL (≈ 8.26 µM); in data set [2], 1.2 µg/mL (≈ 3 µM). Besides, the figures for the inhibition in vivo at 100 mg/kg in data set [3] (setting [4]) and in data set [3] (setting [5]) were 79% and 76%, respectively.
